# Measurements: paper PMC8286840, “Identifying SARS-CoV-2 antiviral compounds by screening for small molecule inhibitors of Nsp3 papain-like protease” (Biochemical Journal, 2021)
# Structures can show the parent of a compound that is named as a salt. Where two headings read alike, the source gives them in different places.
# Experiments:
# [1] = biological target: T1, SARS-CoV-2 PLpro (nsp3 1564–1878) (Severe acute respiratory syndrome coronavirus 2, UniProt P0DTD1); test: biochemical; parameters: FRET-quenched peptide (Pro3) cleavage by PLpro, 10 min pre-incubation, slope over 20 min, normalised to no-compound control; conditions: low concentration screen, read-out: % of control remaining
# [2] = biological target: T1, SARS-CoV-2 PLpro (nsp3 1564–1878); test: biochemical; parameters: FRET-quenched peptide (Pro3) cleavage by PLpro, 10 min pre-incubation, slope over 20 min, normalised to no-compound control; conditions: high concentration screen, read-out: % of control remaining
smiles,measurement,setting,value
O=C1NCC2(CCN(CCc3ccccc3)CC2)O1 [Fenspiride (Hydrochloride)],remaining activity at 1.25 µM,[1]; Well no.=6705,104%
same,remaining activity at 3.75 µM,[2]; Well no.=6705,100%
O=C(O)[C@H](Cc1ccc(Nc2nccc3ccncc23)cc1)NC1=C(Br)C(=O)C12CCCCC2 [Zaurategrast],remaining activity at 1.25 µM,[1]; Well no.=7838,98.1%
same,remaining activity at 3.75 µM,[2]; Well no.=7838,99.7%
O=C(/C=C/c1ccc(O)cc1)CC(=O)/C=C/c1ccc(O)cc1 [Bis demethoxycurcumin],remaining activity at 1.25 µM,[1]; Well no.=3466,102%
same,remaining activity at 3.75 µM,[2]; Well no.=3466,103%
"C/C(O)=C(\C#N)C(=O)Nc1cc(Br)ccc1Br [LFM-A13 - 2-Cyano-N-(2,5-dibromophenyl)-3-hydroxy-2-butenamide]",remaining activity at 1.25 µM,[1]; Well no.=2384,101%
same,remaining activity at 3.75 µM,[2]; Well no.=2384,102%
"COC1=C(OC)C(=O)c2ccccc2C1=O [2,3-Dimethoxy-1,4-naphthoquinone]",remaining activity at 1.25 µM,[1]; Well no.=739,98%
same,remaining activity at 3.75 µM,[2]; Well no.=739,96.9%
CC1=CC(=O)c2ccccc2C1=O [Menadione],remaining activity at 1.25 µM,[1]; Well no.=3372,98.5%
same,remaining activity at 1.25 µM,[1]; Well no.=6251,99.2%
same,remaining activity at 3.75 µM,[2]; Well no.=3372,96.5%
same,remaining activity at 3.75 µM,[2]; Well no.=6251,101%
COc1ccc2cc1Oc1ccc(cc1)C[C@H]1c3cc(c(OC)cc3CCN1C)Oc1c(OC)c(OC)cc3c1[C@@H](C2)N(C)CC3 [Isotetrandrine],remaining activity at 1.25 µM,[1]; Well no.=3365,100%
same,remaining activity at 3.75 µM,[2]; Well no.=3365,98.1%
COc1cc2c(Nc3ccc(NC(=O)c4ccccc4)cc3)ncnc2cc1OCCCN1CCOCC1 [ZM 447439 - N-[4-[[6-Methoxy-7-[3-(4-morpholinyl)propoxy]-4-quinazolinyl]amino]phenyl]benzamide],remaining activity at 1.25 µM,[1]; Well no.=2534,97.3%
same,remaining activity at 3.75 µM,[2]; Well no.=2534,96.9%
NCc1c[nH]c(=S)n1[C@H]1CCc2c(F)cc(F)cc2C1 [Nepicastat hydrochloride],remaining activity at 1.25 µM,[1]; Well no.=6033,100%
same,remaining activity at 3.75 µM,[2]; Well no.=6033,102%
CCc1cnc(N2CCC(c3nc(COc4ccc(-n5cnnn5)cc4)cs3)CC2)nc1 [MBX-2982],remaining activity at 1.25 µM,[1]; Well no.=8381,102%
same,remaining activity at 3.75 µM,[2]; Well no.=8381,99.5%
N[C@@H](Cn1oc(=O)[nH]c1=O)C(=O)O [Quisqualic acid],remaining activity at 1.25 µM,[1]; Well no.=3535,101%
same,remaining activity at 3.75 µM,[2]; Well no.=3535,101%
CN(C)CCCSc1ccccc1NC(=O)/C=C/c1ccccc1 [Cinanserin],remaining activity at 1.25 µM,[1]; Well no.=2094,101%
same,remaining activity at 3.75 µM,[2]; Well no.=2094,101%
COc1ccc(Br)cc1S(=O)(=O)NC(=O)/C=C/c1ccccc1Cc1ccc2ccccc2c1 [L-798106],remaining activity at 1.25 µM,[1]; Well no.=5661,91.7%
same,remaining activity at 3.75 µM,[2]; Well no.=5661,95%
COc1ccc(/C=C2\COc3ccc(C)cc3C2=O)cc1O [IMS2186],remaining activity at 1.25 µM,[1]; Well no.=5394,97.1%
same,remaining activity at 3.75 µM,[2]; Well no.=5394,97.5%
O=c1c(O)c(-c2ccccc2O)oc2cc(O)cc(O)c12 [Datiscetin],remaining activity at 1.25 µM,[1]; Well no.=3251,95.3%
same,remaining activity at 3.75 µM,[2]; Well no.=3251,96.6%
"CC1(C)CCC=[N+]1[O-] [5,5-Dimethyl-1-pyrroline-N-oxide]",remaining activity at 1.25 µM,[1]; Well no.=501,97%
same,remaining activity at 3.75 µM,[2]; Well no.=501,97.1%
NC(=O)Nc1cc(-c2cccc(F)c2)sc1C(=O)N[C@H]1CCCNC1 [AZD7762],remaining activity at 1.25 µM,[1]; Well no.=2691,94.4%
same,remaining activity at 3.75 µM,[2]; Well no.=2691,95%
O=C(O)c1cc(/N=N/c2ccc(S(=O)(=O)Nc3ccccn3)cc2)ccc1O [Sulfasalazine],remaining activity at 1.25 µM,[1]; Well no.=2293,96.4%
same,remaining activity at 1.25 µM,[1]; Well no.=7312,101%
same,remaining activity at 3.75 µM,[2]; Well no.=2293,97.5%
same,remaining activity at 3.75 µM,[2]; Well no.=7312,101%
CCC(=O)NC[C@@H]1C[C@H]1c1cccc2c1CCO2 [Tasimelteon],remaining activity at 1.25 µM,[1]; Well no.=6230,97.6%
same,remaining activity at 3.75 µM,[2]; Well no.=6230,99%
CCCCC[C@H](O)/C=C/C=C/C/C=C\CCCC(=O)O [12(S)-HHT],remaining activity at 1.25 µM,[1]; Well no.=4234,101%
same,remaining activity at 3.75 µM,[2]; Well no.=4234,103%
"O=C(O)[C@H]1Cc2ccccc2CN1 [(R)-1,2,3,4-Tetrahydro-3-isoquinolinecarboxylic acid]",remaining activity at 1.25 µM,[1]; Well no.=8608,102%
same,remaining activity at 3.75 µM,[2]; Well no.=8608,101%
N#C/C(=C\c1c[nH]c2ccccc12)C(=O)c1ccc(O)c(O)c1 [Tyrphostin AG 808],remaining activity at 1.25 µM,[1]; Well no.=1433,98.9%
same,remaining activity at 3.75 µM,[2]; Well no.=1433,97.2%
C=CCc1cccc(/C=N/NC(=O)CN2CCN(Cc3ccccc3)CC2)c1O [PAC-1],remaining activity at 1.25 µM,[1]; Well no.=4697,103%
same,remaining activity at 1.25 µM,[1]; Well no.=6200,107%
same,remaining activity at 3.75 µM,[2]; Well no.=4697,101%
same,remaining activity at 3.75 µM,[2]; Well no.=6200,93.7%
COc1ccc(/C=C\c2cc(OC)c(OC)c(OC)c2)cc1OP(=O)(O)O [Fosbretabulin disodium],remaining activity at 1.25 µM,[1]; Well no.=5660,95.9%
same,remaining activity at 3.75 µM,[2]; Well no.=5660,90.4%
CO/N=C(\C(=O)N[C@@H]1C(=O)N2C(C(=O)[O-])=C(C[N+]3(C)CCCC3)CS[C@H]12)c1csc(N)n1 [Cefepime],remaining activity at 1.25 µM,[1]; Well no.=1842,90%
same,remaining activity at 3.75 µM,[2]; Well no.=1842,88.2%
"CC(C)(CN1C(=O)C(Cl)=C(Cl)C1=O)CN1C(=O)C(Cl)=C(Cl)C1=O [1,1'-(2,2-dimethylpropane-1,3-diyl)bis(3,4-dichloro-1H-pyrrole-2,5-dione)]",remaining activity at 1.25 µM,[1]; Well no.=5957,102%
same,remaining activity at 3.75 µM,[2]; Well no.=5957,105%
Nc1ccc(S(=O)(=O)Nc2cncc(Cl)n2)cc1 [Sulfaclozine (sodium)],remaining activity at 1.25 µM,[1]; Well no.=7458,96.2%
same,remaining activity at 3.75 µM,[2]; Well no.=7458,93.3%
CC#C[C@@H](CC(=O)O)c1ccc(OCc2cccc(-c3ccc(C(F)(F)F)cc3)c2)cc1 [AMG 837 (calcium hydrate)],remaining activity at 1.25 µM,[1]; Well no.=6944,98.4%
same,remaining activity at 3.75 µM,[2]; Well no.=6944,95.6%
O=C1NC(c2cccc([N+](=O)[O-])c2)=CCN1c1ccccc1O [Icilin],remaining activity at 1.25 µM,[1]; Well no.=5682,83.3%
same,remaining activity at 3.75 µM,[2]; Well no.=5682,83.5%
COc1cc(NC(=O)c2ccccn2)ccc1Cl [VU 0361737],remaining activity at 1.25 µM,[1]; Well no.=4837,98.5%
same,remaining activity at 3.75 µM,[2]; Well no.=4837,106%
CC1=C[C@@H]2c3cccc4[nH]cc(c34)C[C@H]2N(C)C1 [Agroclavine],remaining activity at 1.25 µM,[1]; Well no.=210,94.3%
same,remaining activity at 3.75 µM,[2]; Well no.=210,93.5%
CCOc1cc([C@@H](CS(C)(=O)=O)N2C(=O)c3cccc(NC(C)=O)c3C2=O)ccc1OC [Apremilast (CC-10004)],remaining activity at 1.25 µM,[1]; Well no.=5218,97.8%
same,remaining activity at 3.75 µM,[2]; Well no.=5218,99.8%
CCCc1c(OCCCCc2nnn[nH]2)ccc(C(C)=O)c1O [LY-171883],remaining activity at 1.25 µM,[1]; Well no.=4522,98%
same,remaining activity at 3.75 µM,[2]; Well no.=4522,102%
COc1ccc(OC)c([C@@H](O)[C@H](C)N)c1 [Methoxamine hydrochloride],remaining activity at 1.25 µM,[1]; Well no.=980,100%
same,remaining activity at 3.75 µM,[2]; Well no.=980,101%
